Data: US12612388B2, “Receptor-interacting protein 1 inhibitors including piperazine heterocyclic amide ureas” (SIRONAX LTD., priority 2020, dated 2026)

tested on: HT-29 cells; assay: Cellular RIP1 inhibitory activity: necroptosis of HT-29 cells induced by TNF-α/SMAC mimetic/zVAD-FMK, CellTiter-Glo viability; type: cell-based; details: Homo sapiens, HT-29, 20 h, read-out: EC50 (Cell activity; Necrosis or Necroptosis Inhibitory Activity)
Description: In Table 2, activity is provided as follows: +++=0.1 nM≤EC50<100 nM; ++=100 nM≤EC50K<1000 nM; +=1000 nM≤EC50K<10000 nM.
Compounds 1-67 (denoted as Compound Nos. 1 through 67 in Table 1) of the disclosure were tested for binding and cellular RIP1 inhibitory activity following the experimental procedures described below.
Cell line: HT-29 (ATCC® HTB-38™)
Culture medium: McCOY's 5A, Gibco, Cat No. 16600-082
DMSO: Sigma, Cat No. 67-68-5, 1 L
Assay plate: Corning #3903
Compound dilution plate: Corning #3357
Inducers: TNFα, GenScript, Cat No. Z01001-50,
SmacM, Cat. No., HY-15989, MedChemExpress (MCE)
Z_VAD FMK, TargetMol, T6013
Cell Titer-Glo® Luminescent Cell Viability Assay Kit: Promega, Cat No. G7573
1. HT-29 cells were checked every day to make sure that they were healthy and growing as expected. They were subjected to sub-culturing when they were approximately 80% confluent.
2. The culture medium, McCOY's 5A medium (Gibco, Cat No. 16600-082) with 10% fetal bovine serum or FBS (Gibco, Cat No. 10099-141C), was pre-warmed in a 37° C. water bath for at least 30 min.
3. When the cells had reached a desired level of confluency of 80% in a T75 flask, the medium was aspirated, and the cells were washed with warm phosphate buffered saline or PBS two times.
4. 2-3 ml fresh warm trypsin (Gibco, Cat No. 25200-056) solution was added to the washed cells. The flask with the cells was transferred to a 37° C. incubator.
5. After 5 minutes, the side of the flask was tapped, and the flask was examined under a microscope for detachment of the cells to the flask. If necessary, the cells were kept in the incubator for an additional 5-10 minutes, with occasional tapping, until lifting was complete.
6. The trypsin reaction was neutralized by transferring 6-9 ml cell culture medium to sterile 15 ml conical tubes, and by centrifuging the cell culture at 300×g for 7 minutes to pellet the cells (supernatant decanted).
7. The cells were resuspended in fresh cell culture medium and the cell counting was performed using a hemocytometer.
8. 100 μl of the resuspended cell culture medium containing ˜5,000 cells were transferred into each well of the sterile 96-well cell culture plate (Corning 3903) and cultured overnight at 37° C. with 5% CO2.
Compound Titration and Treatment
1. All test compounds were dissolved in DMSO (Dimethyl sulfoxide) to create a 20 mM stock.
2. 3 μl of each compound 20 mM stock was mixed with 27 μl DMSO, and the compound solution was further diluted at a titration ratio of 1:3 (20 μl compound solution+40 μl DMSO) till the 10 points end.
3. All culture medium was removed from assay plates filled with HT-29 cell cultures. The cells were then washed with 1 PBS, and resuspended in fresh, FBS-free McCOY's 5A medium containing a cocktail of TNF-α (10 ng/ml), a SMAC mimetic compound (6 μM) and Z-VAD-fluoromethylketone or zVAD-FMK (10 μM) to stimulate the HT-29 cells to increase RIP1 kinase levels and necroptosis.
4. 0.5 μL of the diluted compound solution was added to the corresponding 96-well assay plates.
5. The assay plates were incubated for 20 hours at 37° C. with 5% CO2.
1. The CellTiter-Glo® Luminescent Cell Viability Assay was employed to detect the ATP levels of viable HT-29 cells.
2. The CellTiter-Glo® buffer and the lyophilized substrate were equilibrated to room temperature prior to use.
3. The CellTiter-Glo® substrate was resuspended with CellTiter-Glo® buffer, then mixed by gently vortexing to obtain a homogeneous solution.
4. 20 μl the enzyme/substrate mixture was transferred by multi-channel pipetting into 96-well assay plates.
5. The assay plates were placed on an orbital shaker and the contents were shaken for 3 minutes to induce cell lysis.
6. The assay plates were incubated at room temperature for 10 minutes to stabilize the luminescent signal.
7. The luminescence signals were read and recorded with EnVision.
8. The geometric mean EC50 values were calculated from 10 points response dose with duplicates. […]

With CCNC(=O)c1ccnc(N2CCN(C(=O)N3N=CC[C@H]3c3cc(F)cc(F)c3)CC2)n1 [Compound 35, (S)-2-(4-(5-(3,5-difluorophenyl)-4,5-dihydro-1H-pyrazole-1-carbonyl)piperazin-1-yl)-N-ethylpyrimidine-4-carboxamide] as the compound, how does the EC50 read?
The EC50 was 0.1 to 100 nM.

same assay, conditions: Homo sapiens; HT-29 cells; TNF-α 10 ng/ml, SMAC mimetic 6 μM, zVAD-FMK 10 μM; 20 hours; geometric mean, 10 points, duplicates; read-out: EC50 (Cell activity; Necrosis or Necroptosis Inhibitory Activity)

With O=C(NO)c1nc(N2CCN(C(=O)N3N=CC[C@H]3c3cc(F)cc(F)c3)CC2)ncc1F [Compound 2, (S)-2-(4-(5-(3,5-difluorophenyl)-4,5-dihydro-1H-pyrazole-1-carbonyl)piperazin-1-yl)-5-fluoro-N-hydroxypyrimidine-4-carboxamide] as the compound, how does the EC50 read?
Its EC50 is 0.1 to 100 nM.

CN(C(=O)c1nc(N2CCN(C(=O)N3N=CC[C@H]3c3cc(F)cc(F)c3)CC2)ncc1F)C1CC1 [Compound 9, (S)—N-cyclopropyl-2-(4-(5-(3,5-difluorophenyl)-4,5-dihydro-1H-pyrazole-1-carbonyl)piperazin-1-yl)-5-fluoro-N-methylpyrimidine-4-carboxamide] was tested. Which EC50 did it give?
The EC50 was 0.1 to 100 nM.

For O=C(c1nc(N2CCN(C(=O)N3N=CC[C@H]3c3cc(F)cc(F)c3)CC2)ncc1F)N1CCOCC1 [Compound 18, (5-(3,5-difluorophenyl)-4,5-dihydro-1H-pyrazol-1-yl)(4-(5-fluoro-4-(morpholine-4-carbonyl)pyrimidin-2-yl)piperazin-1-yl)methanone], which EC50 is on record?
Its EC50 is 0.1 to 100 nM.

For CN(O)C(=O)c1nc(N2CCN(C(=O)N3N=CC[C@H]3c3cc(F)cc(F)c3)CC2)ncc1F [Compound 20, (S)-2-(4-(5-(3,5-difluorophenyl)-4,5-dihydro-1H-pyrazole-1-carbonyl)piperazin-1-yl)-5-fluoro-N-hydroxy-N-methylpyrimidine-4-carboxamide], which EC50 is on record?
The EC50 was 0.1 to 100 nM.

How did the EC50 turn out when CCOC1CN(C(=O)c2nc(N3CCN(C(=O)N4N=CC[C@H]4c4cc(F)cc(F)c4)CC3)ncc2F)C1 [Compound 23, (S)-(5-(3,5-difluorophenyl)-4,5-dihydro-1H-pyrazol-1-yl)(4-(4-(3-ethoxyazetidine-1-carbonyl)-5-fluoropyrimidin-2-yl)piperazin-1-yl)methanone] was run?
The EC50 was 0.1 to 100 nM.

With COC1CN(C(=O)c2nc(N3CCN(C(=O)N4N=CC[C@H]4c4cc(F)cc(C#N)c4)CC3)ncc2Cl)C1 [Compound 63, (S)-3-(1-(4-(5-chloro-4-(3-methoxyazetidine-1-carbonyl)pyrimidin-2-yl)piperazin-1-carbonyl)-4,5-dihydro-1H-pyrazol-5-yl)-5-fluorobenzonitrile] as the compound, how does the EC50 read?
The EC50 was 0.1 to 100 nM.

How did the EC50 turn out when N#Cc1cc(F)cc([C@@H]2CC=NN2C(=O)N2CCN(c3ncc(F)c(C(=O)N4CC(C#N)C4)n3)CC2)c1 [Compound 54, (S)-1-(2-(4-(5-(3-cyano-5-fluorophenyl)-4,5-dihydro-1H-pyrazole-1-carbonyl)piperazin-1-yl)-5-fluoropyrimidine-4-carbonyl)azetidine-3-carbonitrile] was run?
The EC50 was 0.1 to 100 nM.

O=C(c1nc(N2CCN(C(=O)N3N=CC[C@H]3c3cc(F)cc(F)c3)CC2)ncc1F)N1CC(CN2CCCC2)C1 [Compound 10, (5-(3,5-difluorophenyl)-4,5-dihydro-1H-pyrazol-1-yl)(4-(5-fluoro-4-(3-(pyrrolidin-1-ylmethyl)azetidine-1-carbonyl)pyrimidin-2-yl)piperazin-1-yl)methanone] was tested. Which EC50 did it give?
The EC50 was 0.1 to 100 nM.

O=C(c1nc(N2CCN(C(=O)N3N=CC[C@H]3c3cc(F)cc(F)c3)CC2)ncc1F)N1CC(O)C1 [Compound 13, (5-(3,5-difluorophenyl)-4,5-dihydro-1H-pyrazol-1-yl)(4-(5-fluoro-4-(3-hydroxyazetidine-1-carbonyl)pyrimidin-2-yl)piperazin-1-yl)methanone] was tested. Which EC50 did it give?
Its EC50 is 0.1 to 100 nM.

With NC(=O)[C@@H]1CCN(C(=O)c2nc(N3CCN(C(=O)N4N=CC[C@H]4c4cc(F)cc(F)c4)CC3)ncc2F)C1 [Compound 27, (R)-1-(2-(4-((S)-5-(3,5-difluorophenyl)-4,5-dihydro-1H-pyrazole-1-carbonyl)piperazin-1-yl)-5-fluoropyrimidine-4-carbonyl)pyrrolidine-3-carboxamide] as the compound, how does the EC50 read?
The EC50 was 0.1 to 100 nM.

How did the EC50 turn out when COC1CN(C(=O)c2nc(N3CCN(C(=O)N4N=CC[C@H]4c4cc(F)cc(F)c4)CC3)ncc2F)C1 [Compound 21, (S)-(5-(3,5-difluorophenyl)-4,5-dihydro-1H-pyrazol-1-yl)(4-(5-fluoro-4-(3-methoxyazetidine-1-carbonyl)pyrimidin-2-yl)piperazin-1-yl)methanone] was run?
Its EC50 is 0.1 to 100 nM.

Which EC50 does the source give for CN(C)C(=O)c1nc(N2CCN(C(=O)N3N=CC[C@H]3c3cc(F)cc(F)c3)CC2)ncc1F [Compound 5, 2-(4-(5-(3,5-difluorophenyl)-4,5-dihydro-1H-pyrazole-1-carbonyl)piperazin-1-yl)-5-fluoro-N,N-dimethylpyrimidine-4-carboxamide] here?
The EC50 was 0.1 to 100 nM.

For O=C(c1nc(N2CCN(C(=O)N3N=CC[C@H]3c3cc(F)cc(F)c3)CC2)ncc1F)N1CC2(CCC2)C1 [Compound 29, (S)-(5-(3,5-difluorophenyl)-4,5-dihydro-1H-pyrazol-1-yl)(4-(5-fluoro-4-(2-azaspiro[3.3]heptane-2-carbonyl)pyrimidin-2-yl)piperazin-1-yl)methanone], which EC50 is on record?
Its EC50 is 0.1 to 100 nM.

For COC(=O)c1ccnc(N2CCN(C(=O)N3N=CC[C@H]3c3cc(F)cc(F)c3)CC2)n1 [Compound 49, methyl (S)-2-(4-(5-(3,5-difluorophenyl)-4,5-dihydro-1H-pyrazole-1-carbonyl)piperazin-1-yl)pyrimidine-4-carboxylate], which EC50 is on record?
The EC50 was 0.1 to 100 nM.

With CNC(=O)c1nc(N2CCN(C(=O)N3N=CC[C@H]3c3cc(F)cc(F)c3)CC2)ncc1F [Compound 4] as the compound, how does the EC50 read?
Its EC50 is 0.1 to 100 nM.

How did the EC50 turn out when NC(=O)c1ccnc(N2CCN(C(=O)N3N=CC[C@H]3c3cc(F)cc(F)c3)CC2)n1 [Compound 38, 2-(4-(5-(3,5-difluorophenyl)-4,5-dihydro-1H-pyrazole-1-carbonyl)piperazin-1-yl)pyrimidine-4-carboxamide] was run?
The EC50 was 0.1 to 100 nM.

Which EC50 does the source give for O=C(O)c1nc(N2CCN(C(=O)N3N=CC[C@H]3c3cc(F)cc(F)c3)CC2)ncc1F [Compound 1, (S)-2-(4-(5-(3,5-difluorophenyl)-4,5-dihydro-1H-pyrazole-1-carbonyl)piperazin-1-yl)-5-fluoropyrimidine-4-carboxylic acid] here?
The EC50 was 1000 to 10000 nM.

How did the EC50 turn out when O=C(c1nc(N2CCN(C(=O)N3N=CC[C@H]3c3cc(F)cc(F)c3)CC2)ncc1F)N1CC2(COC2)C1 [Compound 14, (5-(3,5-difluorophenyl)-4,5-dihydro-1H-pyrazol-1-yl)(4-(5-fluoro-4-(2-oxa-6-azaspiro[3.3]heptane-6-carbonyl)pyrimidin-2-yl)piperazin-1-yl)methanone] was run?
Its EC50 is 0.1 to 100 nM.

For CN(C)CC1CN(C(=O)c2nc(N3CCN(C(=O)N4N=CC[C@H]4c4cc(F)cc(F)c4)CC3)ncc2F)C1 [Compound 28, (S)-(5-(3,5-difluorophenyl)-4,5-dihydro-1H-pyrazol-1-yl)(4-(4-(3-((dimethylamino)methyl)azetidine-1-carbonyl)-5-fluoropyrimidin-2-yl)piperazin-1-yl) methanone], which EC50 is on record?
Its EC50 is 0.1 to 100 nM.

Which EC50 does the source give for CCN(C)C(=O)c1nc(N2CCN(C(=O)N3N=CC[C@H]3c3cc(F)cc(F)c3)CC2)ncc1F [Compound 6, (S)-2-(4-(5-(3,5-difluorophenyl)-4,5-dihydro-1H-pyrazole-1-carbonyl)piperazin-1-yl)-N-ethyl-5-fluoro-N-methylpyrimidine-4-carboxamide] here?
The EC50 was 0.1 to 100 nM.
